Values quoted from earlier work, collected in US12377214B2 (priority 2016, dated 2025).

Test system: BIS index
Settings: in vivo

CC(C)c1cccc(C(C)C)c1O [propofol]
Cp50 (interaction model parameter, effect site concentration of propofol): 4.47
